Data taken from patent US8383550B2, “Defoliant” (Bayer Cropscience AG, priority 2009, dated 2013).

Columns and labels:
[1] = system: Cotton plants of the cultivar "Carmen"; assay: Regrowth of cotton plants, by weighing newly formed leaf material; type: in vivo; details: 2 weeks after application, 1 l/ha Actirob B added, repeated twice
Description: (§1) A water application rate of 300 l/ha was initially charged. The components herbicide and adjuvant were then added with stirring at the application rates and in the manner stated in the tables, such that a homogeneous spray liquor was formed. Here, the active ingredients were employed as suspension concentrates (thidiazuron as ®Escalate liquid SC500. Metribuzin as ®Sencor SC 80, thidiazuron+diuron as ®Dropp Ultra SC180) from Bayer CropScience AG. The adjuvant used was ®Actirob B (Novance).
(§2) Cotton seeds of the cultivar “Carmen” were sown at a depth of 1 cm and cultivated in a greenhouse cabin (20000-50000 LUX light: 14 hrs/day; temperature at night: 22° C., during the day: 30° C., rel. atmospheric humidity at night: 65%, during the day 50%) until they had reached the 6-8 leaf stage.
(§3) The plants were treated on a laboratory spray track with spray liquors of thidiazuron and thidiazuron with combination partners. The water application rate for the spray application was 300 l/ha. After the treatment, the plants were returned to the greenhouse cabin.
2 weeks after the application, the regrowth of the plants was assessed by weighing the newly formed leaf material. The tabular values express the regrowth as a percentage of the untreated control.

[2] = system: Cotton plants of the cultivar "Carmen"; assay: Leaf drop effect on cotton plants after spray application (greenhouse); type: in vivo; details: 1 l/ha Actirob B added
Description: as §1, §2, §3
4 and 8 days after the application, the leaf drop effect was evaluated (leaf drop %): • 0%=no noticeable effect compared to untreated plants; • 100%=all leaves have dropped off.

[3] = Test 1, dose 30 g of a.i./ha, 0%=no effect, 100%=all leaves dropped

| SMILES | Regrowth [%] as a percentage of the untreated control ([1]; Table 3, dose 15 g of a.i./ha) [%] | Regrowth [%] as a percentage of the untreated control ([1]; Table 3, dose 30 g of a.i./ha) | Regrowth [%] as a percentage of the untreated control ([1]; Table 4, dose 15 g of a.i./ha) [%] | Regrowth [%] as a percentage of the untreated control ([1]; Table 4, dose 30 g of a.i./ha) [%] | Leaf drop [%] 4 days after application ([2]; Test 1, dose 15 g of a.i./ha) [%] | Leaf drop [%] 8 days after application ([2]; Test 1, dose 15 g of a.i./ha) [%] | Leaf drop [%] 8 days after application ([2]; Test 1, dose 30 g of a.i./ha) [%] | Leaf drop [%] 4 days after application [2, 3] [%] | Leaf drop [%] 4 days after application ([2]; Test 2, dose 15 g of a.i./ha) [%] | Leaf drop [%] 8 days after application ([2]; Test 2, dose 15 g of a.i./ha) [%] | Leaf drop [%] 4 days after application ([2]; Test 2, dose 30 g of a.i./ha) [%] | Leaf drop [%] 8 days after application ([2]; Test 2, dose 30 g of a.i./ha) [%] |
| --- | --- | --- | --- | --- | --- | --- | --- | --- | --- | --- | --- | --- |
| CSc1nnc(C(C)(C)C)c(=O)n1N [metribuzin] | 0 | 0% | 0 | 0 | 0 | 0 | 0 | 0 | 0 | 0 | 0 | 0 |
| O=C(Nc1ccccc1)Nc1cnns1 [thidiazuron] | – | +60% | – | – | – | – | 63 | 0 | – | – | – | – |
